In US9868737B2, “Pyridino[1,2-A]pyrimidone analogue used as MTOR/P13K inhibitor” (CISEN PHARMACEUTICAL CO., LTD., priority 2014, dated 2018) one finds IC50 and inhibition data, which are given here for 20 compounds.

Read-outs that look alike come from different tables or passages of the source. Where only a bound is given, the exact number is not on record here.

The test relates to MCF-7 cells. The test is described as follows: In vitro test of cell activity (MCF-7 cells, insulin stimulation, ELISA-One fluorescence). The format is cell-based. Particulars: for inhibition at 0.5 µM: conc. 0.5 μM; for inhibition at 1 µM: conc. 1 μM; for inhibition at 0.25 µM: conc. 0.25 μM. Here is the method: Example In Vitro Tests of Cell Activities Experimental Steps and Methods:
1) MCF-7 cells were inoculated at the density of 2.5×10^4 cells/well into 96-well plates (the culture medium used should be a complete culture medium containing 10% FBS).
2) On the next day, the medium in each well was drawn out. A certain concentration (preliminary screening) or a series of concentration (IC50 test) of compounds were dissolved in a culture medium without serum and added to the 96-well plates to culture cells for 2 hours.
3) Insulin was dissolved in a culture medium without serum, added to the cultured cells and incubated for 30 minutes, wherein the final concentration of insulin was […].
4) A lysis solution was prepared according to the following method during the waiting period for the reaction:
a) Enhancer solution was removed from the refrigerator to melt in advance.
b) Enhancer solution was diluted 10 times with the 5× Lysis Buffer to give a concentrated lysis solution.
c) The concentrated lysis solution was diluted 5 times with double distilled water to give the lysis solution.
5) The medium in each well was completely removed and each well was quickly rinsed with PBS once.
6) 150 μl of the freshly prepared lysis solution was added to each well and shaked at room temperature for 10 minutes.
7) After confirming that all cells were detached, the lysis solution together with the cell fragments was transferred into a 1.5 ml tube.
8) The tube was shaked on vortes mixer to make the lysis solution and cells mix completely and then the mixture was centrifugated at 4° C. under 12000 g for 10 minutes.
9) The number of strips of ELISA-one micro-well plate that is required was calculated. The needless strips were removed from the frame, put back into the storage bag and sealed. Before the strips of micro-well plate were used, 200 μl of double distilled water was used to rinse each well to remove preservative.
10) 50 μl of antibody mixture was added to each well. (The antibody mixture solution was prepared by mixing the medium antibody reagent and the enzyme labeled antibody reagent with an equal proportion. The preparation of antibody mixture didn't need vortex.)
11) 25 μl of cell lysates was added to each well of ELISA-One micro-well plate. The micro-well plate was covered with adhesive sealing film and incubated on a micro-well plate oscillation instrument at room temperature for 1 hour.
12) Each well was rinsed with 150 μl of 1× rinsing buffer 3 times. After the last rinsing, the rinsing buffer in the well was completely removed. If necessary, the 1× rinsing buffer could be allowed to stay in the micro-well plate for up to 30 minutes so that the substrate mixed solution could be prepared during such time period.
13) The substrate mixed solution should be prepared just before each use, 10 μl of the substrate mixed solution was added to each well and the micro-well plate was sealed with tin-foil and incubated on the micro-well plate oscillation instrument at room temperature for 10 minutes.
14) 10 μl of stop solution was added to each well and mixed slightly (5-10 seconds) on the micro-well plate oscillation instrument.
15) The corresponding ELISA-One filter group was assembled and used to read the fluorescence signal intensity.
For orientation: ELISA stands for enzyme-linked immunosorbent assay.

Where [1] appears, read: Homo sapiens, MCF7, MCF-7 cells, read-out: IC50 p-AKT.
Setting [2] is: Homo sapiens, MCF7, MCF-7 cells, read-out: % inhibition AKT.
Setting [3] is: Homo sapiens, MCF7, MCF-7 cells, read-out: % inhibition p70s6k.
[4] abbreviates: Homo sapiens, MCF7, MCF-7 cells, read-out: IC50 p-p70S6K.

As usually defined, the IC50 is the midpoint of a concentration-inhibition curve. As for `COc1ncc(-c2ccc3ncc(NC(C)=O)c(=O)n3c2)cc1NS(=O)(=O)c1ccc(F)cc1F` [compound 97], the 50% inhibitory concentration (IC50) under setting [1] is greater than 250 nM.
Turning to `COc1ncc(-c2ccc3ncc(N)c(=O)n3c2)cc1NS(=O)(=O)c1sccc1C` [compound 92], the IC50 under setting [1] is no more than 50 nM.
`COc1ncc(-c2ccc3ncc(OC4CCC(OC)CC4)c(=O)n3c2)cc1NS(=O)(=O)c1sc(C)nc1C` (centres unmarked) [compound 208]: under “MCF-7 cells, read-out: IC50 p-AKT”, the 50% inhibitory concentration (IC50) is no more than 50 nM.
In general, inhibition refers to the relative decrease from the control value, in per cent. Consider `COc1ncc(-c2ccc3nccc(=O)n3n2)cc1NS(=O)(=O)c1ccc(F)cc1Cl` [compound 78], for which the inhibition at 0.5 µM runs as follows: under setting [2], 72.6%; under setting [3], 32.6%.
Turning to `COc1ncc(-c2ccc3ncc(OCCO)c(=O)n3c2)cc1NS(=O)(=O)c1sc(C)nc1C` [compound 180], under setting [1], the IC50 is no more than 50 nM.
On to `COCCOc1cnc2ccc(-c3cnc(OC)c(NS(=O)(=O)c4ccc(OC)nc4C)c3)cn2c1=O` [compound 187], for which, under setting [1], the IC50 was no more than 50 nM.
Regarding `COc1ncc(-c2ccc3ncc(Cl)c(=O)n3c2)cc1NS(=O)(=O)c1cccc(Cl)c1` [compound 141], the inhibition at 0.5 µM reads like this: under setting [2], 96.1%; under setting [3], 88.1%. Moreover, the IC50 by setting is: under setting [1], no more than 50 nM; under setting [4], no more than 50 nM.
For `COc1ncc(-c2cn3c(=O)ccnc3cc2C)cc1NS(=O)(=O)c1ccc(C(F)(F)F)cc1` [compound 130], the inhibition at 0.5 µM is 2.3% under setting [2] and 2.6% under setting [3].
With `COc1ncc(-c2ccc3nccc(=O)n3c2C)cc1NS(=O)(=O)c1c(F)cccc1F` [compound 58], the inhibition at 0.5 µM by setting is: under setting [2], 60.3%; under setting [3], 32.8%.
Regarding `COc1ncc(-c2ccc3nc(C)cc(=O)n3c2)cc1NS(=O)(=O)c1ccc(F)cc1C` [compound 229], the inhibition at 0.5 µM came to 31.7% under setting [2] and 1.4% under setting [3].
As for `COc1ncc(-c2ccc3ncc(OC)c(=O)n3c2)cc1NS(=O)(=O)c1ccc(F)cc1C` [compound 106], the inhibition at 0.5 µM is, setting by setting: under setting [2], 96.2%; under setting [3], 91.8%. The IC50 was no more than 50 nM under setting [1] and 50 to 100 nM under setting [4].
On to `COc1ncc(-c2ccc3nccc(=O)n3c2)cc1NS(=O)(=O)c1ccc(C#N)cc1` [compound 21], for which the inhibition at 1 µM under setting [2] was 94.1% and the inhibition at 1 µM under setting [3] came out at 91.2%. The IC50 was in the range of 50 to 100 nM under setting [1] and 100 to 250 nM under setting [4].
Regarding `COc1ncc(-c2cn3c(=O)ccnc3cc2C)cc1NS(=O)(=O)c1ccc(C#N)cc1` [compound 129], the inhibition at 0.5 µM under setting [2] was -24.2% and the inhibition at 0.5 µM under setting [3] turned out to be 1.2%.
Take `COc1ncc(-c2ccc3nccc(=O)n3n2)cc1NS(=O)(=O)c1ccccc1F` [compound 72]: the inhibition at 0.5 µM by setting is: under setting [2], 51.1%; under setting [3], 10.2%.
For the compound `COc1ncc(-c2ccc3nccc(=O)n3c2)cc1NS(=O)(=O)c1cc(F)ccc1F` [compound 4], the inhibition at 1 µM under setting [2] is 95.6% and the inhibition at 1 µM under setting [3] was determined as 50.8%. Moreover, the IC50 is no more than 50 nM under setting [1] and 100 to 250 nM under setting [4].
`COc1ncc(-c2ccc3nccc(=O)n3c2C)cc1NS(=O)(=O)c1ccc(F)cc1C` [compound 57]: the inhibition at 0.5 µM worked out at 58.6% under setting [2] and 47.2% under setting [3].
Consider `COc1ncc(-c2cn3c(=O)ccnc3cc2C)cc1NS(=O)(=O)c1cccc(F)c1` [compound 124], for which the inhibition at 0.5 µM reads like this: under setting [2], -48%; under setting [3], 2.8%.
Consider `COc1ncc(-c2ccc3ncc(Cl)c(=O)n3c2)cc1NS(=O)(=O)c1nnc(C)s1` [compound 158], for which the inhibition at 0.25 µM is -21.8% under setting [2] and 5.1% under setting [3].
As to `COc1ncc(-c2ccc3ncc(OC)c(=O)n3c2)cc1NS(=O)(=O)c1ccccc1F` [compound 107], the inhibition at 0.5 µM under setting [2] worked out at 94.5% and the inhibition at 0.5 µM under setting [3] was 91%. Besides, the IC50 is no more than 50 nM under setting [1] and 50 to 100 nM under setting [4].
On to `COc1ncc(-c2ccc3nn(C)c(=O)n3c2)cc1NS(=O)(=O)c1ccc(F)cc1F` [compound 234], for which, under setting [1], the IC50 is greater than 250 nM.
